Measurements reported in patent US20210379016A1, “THERAPEUTICS AND METHODS OF TREATMENT OF ANGIOTENSIN-CONVERTING ENZYME 2 ASSOCIATED CONDITIONS” (Board of Supervisors of Louisiana State University and …, priority 2020, published 2021).
Entries after “also recorded” stand apart in the source; their conditions may differ.

Legend:
[1] = biological target: Sigmar1 (Homo sapiens, UniProt Q99720); conditions: cited from earlier work; for Ki: read-out: binding affinity Ki for Sigmar1
[2] = tested on: ACE2 expression in HEK-293 cells; experiment: ACE2 expression in HEK-293 cells treated with Sigmar1 ligands for 24 hours; format: cell-based; conditions: 24 hours treatment

Chain of Sigmar1 (Q99720 whole entry, species assumed): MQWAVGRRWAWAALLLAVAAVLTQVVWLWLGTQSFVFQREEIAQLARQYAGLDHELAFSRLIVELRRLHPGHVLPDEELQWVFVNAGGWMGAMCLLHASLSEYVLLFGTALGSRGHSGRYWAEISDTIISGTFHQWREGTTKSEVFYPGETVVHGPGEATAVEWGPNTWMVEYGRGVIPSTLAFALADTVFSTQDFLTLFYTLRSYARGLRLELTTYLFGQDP

c1ccc(CCN2CCCCC2)cc1 [AC927, 1-(2-phenylethyl) piperidine]
Ki [1]: 30 ± 2 nM

CN1CCN(CCc2ccc(Cl)c(Cl)c2)CC1 [BD1063, 1-[2-(3,4-dichlorophenyl)ethyl]-4-methylpiperazine]
Ki [1]: 9 ± 1 nM

CCN(CCc1ccc(Cl)c(Cl)c1)CCN1CCCC1 [BD1067, N-[2-(3,4-dichlorophenyl)ethyl]-N-ethyl-1-pyrrolidineethanamine]
Ki [1]: 2 ± 0.5 nM

S=c1sc2ccccc2n1CCCCN1CCN(C2CCCCC2)CC1 [CM156, 3-(4-(4-cyclohexylpiperazin-1-yl)butyl) benzo [d]thiazole-2(3H)-thione]
affinity for Sigmar1 (in words) [1]: nanomolar affinity

CCCN(CCC)CCc1ccc(OC)c(OCCc2ccccc2)c1 [NE-100, 4-methoxy-3-(2-phenylethoxy)-N,N-dipropylbenzeneethanamine]
ACE2 expression [2]: significantly decreased the ACE2 expression; also recorded: decreases the ACE2 expression

COc1ccc(N2C[C@H](CN3CCC(O)(c4ccc5c(c4)OCO5)CC3)OC2=O)cc1 [Panamesine]
IC50 [1]: 6 nM

CN[C@H]1CC[C@@H](c2ccc(Cl)c(Cl)c2)c2ccccc21 [Sertraline]
ACE2 expression [2]: significantly decreased the ACE2 expression; also recorded: decreases the ACE2 expression
